Assay results reported in patent publication EP4722262A1, “PHOTOCURABLE COMPOSITION, THREE-DIMENSIONAL SHAPED OBJECT, CASTING MOLD, METHOD FOR PRODUCING CURED OBJECT, AND METHOD FOR PRODUCING DENTAL PROSTHESIS” (Mitsui Chemicals, Inc., priority 2023, dated 2025).

Assay: Viscosity at 25°C of manufactured monomers
Format: physicochemical

viscosity at 25°C: 7,100 mPa·s
SMILES: C=CC(=O)OCCOC(=O)NCCC(C)CC(C)(C)CNC(=O)OCCOC(=O)C=C (stereo not shown) [SUA-001]
